According to patent publication US9707242B2, “Use of 25-hydroxyvitamin D3 to enhance executive functions” (DSM IP ASSETS B.V., priority 2013, dated 2017):

What was measured:
healthy adults under 65 = test system: healthy adults under 65; parameters: species or system human; settings: in vivo
From the text: The design is a parallel group, randomized, placebo-controlled, double-blind study similar to that of Example 2, above, except that the participants are healthy adults under 65. The duration of supplementation is 6 months (180 days). Group size is chosen so that a statistically significant difference, if present, may be observed between placebo and test groups.
Participants are randomly allocated to either the 25-OH D3 group, Vitamin D3 group, (Vitamin D3+25-OH D3) group or placebo group. Double-blind randomization is carried out by means of a label code associated with a specific participant ID number, whose meaning is known only to the supplier. Participants are allocated randomly to these numbers.
For baseline (Day 0) the following tests are performed: Physical examination, vital signs (blood pressure, heart rate), demographics, clinical laboratory, FFQ, serum: 25-OH D3, 24,25(OH)2D, 1,25(OH)2D3, Vitamin D3, calcium, albumin, creatinine, fasting glucose, PTH; urine: calcium, creatinine; executive function tests (see below). […]
Executive functioning test batteries include the following standard tests of executive functioning: Trail Making Tests A and B (to determine the ratio of TMT-B/TMT-A), Stroop Colour-Word Test, including determining the Stroop ratio, calculated by Stroop card 3/((Stroop card 1+Stroop card 2)/2) and animal fluency test. […]

frail elderly = assay: Example 2: double-blind, randomized, placebo-controlled trial in the frail elderly; type: in vivo, human
From the text: The design is a parallel group, randomized, placebo-controlled, double-blind study with three different application groups. Each group has an appropriate number of participants (e.g., 20 participants). Eligibility is defined as being 65 years or older and being frail or pre-frail. Frailty is defined as having unintentional weight loss, weakness, self-reported exhaustion, slow walking speed, and/or low physical activity (see Fried L P, et al. Frailty in older adults: evidence for a phenotype. J Gerontol A Biol Sci Med Sci. […] A participant is classified as pre-frail when one or two of the aforementioned criteria are met, while frail is classified when three or more criteria are present. […] The duration of supplementation is 6 months (180 days). […] Double-blind randomization is carried out by means of a label code associated with a specific participant ID number, whose meaning is known only to the supplier. Participants are allocated randomly to these numbers. […] For baseline (Day 0) the following tests are performed: […] […] Executive functioning test batteries include the following standard tests of executive functioning: Trail Making Tests A and B (to determine the ratio of TMT-B/TMT-A), Stroop Colour-Word Test, including determining the Stroop ratio, calculated by Stroop card 3/((Stroop card 1+Stroop card 2)/2) and animal fluency test. […]

25-OH D serum level (healthy adults under 65): significantly increases | 25-OH D3 serum level (frail elderly; in vivo): significantly increases
Structure (SMILES): C=C1CC[C@H](O)C/C1=C/C=C1\CCC[C@]2(C)[C@@H]([C@H](C)CCCC(C)(C)O)CC[C@@H]12 [25(OH)D, 25-hydroxyvitamin D3]
improvement of executive functioning (frail elderly; frail elderly, 6 months, in comparison to Vitamin D3 and placebo): significantly higher effect
